Experimental data taken from BindingDB's records for PubMed 33309162 (Universita Degli Studi di Palermo, 2021).

Target: PI3K catalytic subunit alpha (PIK3CA), rat
Assay: Inhibition of PI3Kalpha in rat Rat1 cells reduction in phosphorylation of AKT at Ser473 residue incubated for 2 hrs by alpha screen assay

IC50	SMILES
> 10 µM	Cn1nccc1-n1c([C@@H]2CSCN2c2ncnc(N)c2C#N)nc2cccc(Cl)c2c1=O
> 10 µM	CN1CCN(C)/C(=N/c2ccc([N+](=O)[O-])cc2C(=O)Nc2ccccc2)C1
> 10 µM	N#Cc1c(N)ncnc1N1CSC[C@H]1c1nc2cccc(Cl)c2c(=O)n1-c1cccs1
